Among the data in article doi:10.1101/2022.12.17.520850v1, “A-ring-fused pyrazoles of dihydrotestosterone targeting prostate cancer cells via the downregulation of the androgen receptor” (biorxiv, 2022) are microscale thermophoresis values, retold here.

This assay addresses T1, human recombinant AR-LBD (Homo sapiens, UniProt P10275).
T1 sequence (P10275 664-920): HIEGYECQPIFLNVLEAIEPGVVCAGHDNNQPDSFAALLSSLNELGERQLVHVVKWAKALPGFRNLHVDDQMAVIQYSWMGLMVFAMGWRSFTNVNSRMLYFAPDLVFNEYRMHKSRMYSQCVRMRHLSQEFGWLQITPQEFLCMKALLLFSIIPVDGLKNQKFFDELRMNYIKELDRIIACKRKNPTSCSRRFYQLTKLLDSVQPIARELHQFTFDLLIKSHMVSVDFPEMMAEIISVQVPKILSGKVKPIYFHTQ
Briefly: microscale thermophoresis. The assay is classed as binding. Conditions: […] 3d, […] His-tagged AR-LBD, […] Tris, […] NaCl, pH […] DTT, […] Tween; labelled protein. For orientation: Microscale thermophoresis detects binding through changes in fluorescence in a small temperature gradient.

In the case of `Cc1c2c(nn1-c1ccc(F)cc1)C[C@@H]1CC[C@@H]3[C@H](CC[C@]4(C)[C@@H](O)CC[C@@H]34)[C@@]1(C)C2` [3d], the microscale thermophoresis entry was “confirmed thus binding of 3d into the AR-LBD”.
